Reference: patent US6352982B1, “4,1-benzoxazepines, their analogues, and their use as somatostatin agonists” (Takeda Chemical Industries, Ltd., priority 1997, dated 2002)
pEC50, pIC50: −log10 of the molar value. Where a name gives a salt, the structure may show the parent alone.

Tests used:
[1] = target: T1, human somatostatin receptor SSTR2 (Homo sapiens, UniProt P30874); experiment: Binding inhibition of 125I-somatostatin, CHO cell membrane fraction; details: 125I-somatostatin binding, 25° C. for 60 minutes, read-out: Activities for human somatostatin receptor (IC50 value) SSTR2
T1 construct: expressed in transfected cells; host or cells: CHO (dhfr-) cells, strain SSTR2-HS5-9
T1 sequence (P30874 whole entry): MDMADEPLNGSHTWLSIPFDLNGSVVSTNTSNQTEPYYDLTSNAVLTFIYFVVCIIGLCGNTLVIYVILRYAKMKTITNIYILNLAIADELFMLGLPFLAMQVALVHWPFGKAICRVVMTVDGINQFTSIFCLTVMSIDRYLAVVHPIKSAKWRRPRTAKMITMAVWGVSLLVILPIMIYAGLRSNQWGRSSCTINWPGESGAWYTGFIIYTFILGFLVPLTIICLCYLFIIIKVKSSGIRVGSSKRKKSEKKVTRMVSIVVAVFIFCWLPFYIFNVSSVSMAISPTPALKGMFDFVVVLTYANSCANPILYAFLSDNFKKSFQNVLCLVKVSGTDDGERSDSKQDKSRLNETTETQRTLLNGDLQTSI
Description: (§1) A human somatostatin receptor expression CHO cell strain, SSTR1-8-3, SSTR2-HS5-9, SSTR3-15-19, SSTR4-1-2 or SSTR5-32-4 (10^9), was suspended in a phosphate buffered saline containing 5mM of EDTA (PBS-EDTA). The suspension was centrifuged. To the cell pellet was added 10 ml of a homogenation buffer solution for cells (10 mM NaHCO3, 5 mM EDTA, pH=7.5). The mixture was homogenized by a Politron homogenizer and centrifuged at 400×g for 15 minutes. The supernatant obtained was farther centrifuged at 100,000×g for an hour to obtain a precipitate of the membrane fraction. The precipitate was suspended in 2 ml of a buffer solution for assay ([…], 0.1% of BSA (bovine serum albumin) and […], 1 μ/ml of pepstatin, 20 μg/ml of leupeptin, 10 μg/ml of phosphoramide, pH=7.5). The suspension was centrifuged at […] for an hour. The membrane fraction recovered as precipitate was suspended again in 20 ml of buffer solution for assay. The suspension was placed in tubes and stored at −80° C. The suspension was thawed when used, and used at every use.
(§2) The membrane fraction prepared in Example 1 was diluted with a buffer solution for assay to adjust the concentration to 3 μg/ml. The diluate was placed in tubes each in quantity of 173 μl. To this were simultaneously added 2 μl of a solution of a compound in DMSO and 25μl of a 200pM radioisotope-labeled somatostatin (^125I-somatostatin: Amersham) solution. For measurement of the maximum binding, a reaction mixture added with 2 μl of DMSO and 25μl of a 200pM ^125I-somatostatin solution was prepared. For measurement of non-specific binding, a reaction mixture added with 2 μl of a 100 μM somatostatin solution diluted in DMSO and 25 μl of a 200pM ^125I-somatostatin solution was prepared at the same time. The mixtures were allowed to react at 25° C. for 60 minutes. Then, the reaction mixture was filtered by aspiration using a GF/B glass fiber filter paper (Whatman) treated with polyethylenimine. After filtration, the radioactivity of 125I-somatostatin remaining on the filter paper was measured by a γ-counter.
(§3) The binding rate (%) of each compound was calculated by the formula: […]
(§4) (where PBM: Percent maximum Binding, B: radioactivity when a compound was added, Bo: maximum binding radioactivity, NSB: non-specific binding radioactivity). The binding rates were calculated by changing the concentrations of the compound to obtain the 50% inhibiting concentration of the compound (IC50 value) by the Hil l plots.
(§5) The activities (IC50 value, μM) of the compounds for each human somatostatin receptor obtained by the above method are shown in the following Table 5.

[2] = target: T2, human somatostatin receptor SSTR3 (Homo sapiens, UniProt P32745); experiment: as above; details: 125I-somatostatin binding, 25° C. for 60 minutes, read-out: Activities for human somatostatin receptor (IC50 value) SSTR3
T2 construct: expressed in transfected cells; host or cells: CHO (dhfr-) cells, strain SSTR3-15-19
T2 sequence (P32745 whole entry): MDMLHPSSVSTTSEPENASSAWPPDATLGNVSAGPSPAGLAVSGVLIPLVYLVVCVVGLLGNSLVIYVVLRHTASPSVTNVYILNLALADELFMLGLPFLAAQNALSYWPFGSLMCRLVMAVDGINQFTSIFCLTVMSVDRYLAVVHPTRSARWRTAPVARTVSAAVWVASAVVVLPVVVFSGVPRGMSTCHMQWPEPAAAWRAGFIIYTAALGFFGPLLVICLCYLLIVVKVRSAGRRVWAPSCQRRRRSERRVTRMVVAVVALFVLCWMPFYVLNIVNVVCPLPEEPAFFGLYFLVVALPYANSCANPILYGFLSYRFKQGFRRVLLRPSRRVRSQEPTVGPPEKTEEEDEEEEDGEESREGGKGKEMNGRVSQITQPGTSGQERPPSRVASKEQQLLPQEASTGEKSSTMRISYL
Description: as §1, §2, §3, §4, §5

[3] = target: T3, human somatostatin receptor SSTR4 (Homo sapiens, UniProt P31391); experiment: as above; details: 125I-somatostatin binding, 25° C. for 60 minutes, read-out: Activities for human somatostatin receptor (IC50 value) SSTR4
T3 construct: expressed in transfected cells; host or cells: CHO (dhfr-) cells, strain SSTR4-1-2
T3 sequence (P31391 whole entry): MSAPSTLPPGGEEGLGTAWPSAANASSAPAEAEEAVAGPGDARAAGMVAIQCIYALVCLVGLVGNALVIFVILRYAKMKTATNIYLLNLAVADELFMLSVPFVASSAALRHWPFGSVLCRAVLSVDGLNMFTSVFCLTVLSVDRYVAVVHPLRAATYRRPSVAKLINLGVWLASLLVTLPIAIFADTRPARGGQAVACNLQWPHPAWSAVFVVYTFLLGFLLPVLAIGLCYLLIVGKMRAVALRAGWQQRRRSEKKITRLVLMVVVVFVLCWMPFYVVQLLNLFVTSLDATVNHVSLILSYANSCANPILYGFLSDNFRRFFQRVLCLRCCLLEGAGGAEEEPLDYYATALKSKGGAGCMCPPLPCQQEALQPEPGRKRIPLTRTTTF
Description: as §1, §2, §3, §4, §5

[4] = target: T4, human somatostatin receptor SSTR5 (Homo sapiens, UniProt P35346); experiment: as above; details: 125I-somatostatin binding, 25° C. for 60 minutes, read-out: Activities for human somatostatin receptor (IC50 value) SSTR5
T4 construct: expressed in transfected cells; host or cells: CHO (dhfr-) cells, strain SSTR5-3-2-4 (also printed SSTR5-32-4)
T4 sequence (P35346 whole entry): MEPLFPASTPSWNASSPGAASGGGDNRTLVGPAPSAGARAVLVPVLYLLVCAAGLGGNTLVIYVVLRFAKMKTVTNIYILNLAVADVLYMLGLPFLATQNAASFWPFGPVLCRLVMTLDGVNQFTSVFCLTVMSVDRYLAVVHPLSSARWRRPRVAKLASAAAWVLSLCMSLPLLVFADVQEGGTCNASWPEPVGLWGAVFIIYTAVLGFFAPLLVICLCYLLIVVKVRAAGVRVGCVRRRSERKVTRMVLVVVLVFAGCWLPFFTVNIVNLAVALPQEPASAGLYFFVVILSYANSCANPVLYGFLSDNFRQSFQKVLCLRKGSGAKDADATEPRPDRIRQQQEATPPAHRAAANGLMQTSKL
Description: as §1, §2, §3, §4, §5

[5] = target: T1, human somatostatin receptor SSTR2; experiment: Inhibition of forskolin-stimulated accumulation of cAMP in receptor expression CHO cells; format: cell-based; details: forskolin 10 μM, 37° C. for 30 minutes, read-out: Inhibitory effect on forskolin-stimulated accumulation of cAMP (ED50 value) SSTR2
Description: (§6) For measurement of the accumulated intracellular adenosine 3′,5′-monophosphate (cAMP), the human somatostatin receptor expression cell strains, SSTR2-HS5-9, SSTR-3-15-19, SSTR4-1-2 and SSTR5-32-4, mentioned in Reference Examples 2-3, 3-3,4-3 and 5-3, respectively, were proliferated in 24-well plate until they were confluent. Said cells were washed twice with 1 ml of Medium A [Dulbecco's Modified Eagle Medium (DMEM), 20 mM 2-(4-(2-hydroxyethyl)-1-piperazinyl]ethanesulfonic acid (HEPES) (pH 7.5), 0.2% bovine serum albumin and 0.2 mM 3-isobutyl-1-methylxanthine (IBMX)]. The medium A was placed in wells each in quantity of 400 μl and incubated at 37° C. for an hour. A solution of the compounds of Example 5 and Example 102 (solution obtained by diluting with Medium A to the 10-fold concentration of the final concentration) and a forskolin solution (final concentration 10 μM) were placed in wells each in quantities of 50 μl and 50 μl, respectively, and incubated at 37° C. for 30 minutes. The cells were washed twice with 1 ml of Medium A. Medium A (500 μl) and 100 μl of a 20% aqueous perchloric acid solution were placed in each well and left standing for 20 minutes at 4° C. to lyse the cells. The lyzate was placed in an Eppendorf's tube and centrifuged (15.000 rpm, for 10 minutes). The supernatant was placed in another Eppendorf's tube in quantity of 500 μl and neutralized with 60 mM of a HEPES aqueous solution containing 1.5 M of potassium chloride. The content of cAMP contained in this extract was determined by the Amersham kit (cAMP EIA system).

[6] = target: T2, human somatostatin receptor SSTR3; experiment: as above; format: cell-based; details: forskolin 10 μM, 37° C. for 30 minutes, read-out: Inhibitory effect on forskolin-stimulated accumulation of cAMP (ED50 value) SSTR3
Description: as §6

[7] = target: T3, human somatostatin receptor SSTR4; experiment: as above; format: cell-based; details: forskolin 10 μM, 37° C. for 30 minutes, read-out: Inhibitory effect on forskolin-stimulated accumulation of cAMP (ED50 value) SSTR4
Description: as §6

[8] = target: T4, human somatostatin receptor SSTR5; experiment: as above; format: cell-based; details: forskolin 10 μM, 37° C. for 30 minutes, read-out: Inhibitory effect on forskolin-stimulated accumulation of cAMP (ED50 value) SSTR5
Description: as §6

Row | Compound | pIC50 [1] | pIC50 [2] | pIC50 [3] | pIC50 [4] | pEC50 [5] | pEC50 [6] | pEC50 [7] | pEC50 [8]
1 | NCc1cccc(C2OC(CC(=O)NCc3ccccc3F)C(=O)N(Cc3ccc(-c4ccccc4)cc3)c3ccc(Cl)cc32)c1 (stereo not drawn) [Example 5, 3,5-Trans-N-(2-fluorobenzyl)-5-(3-aminomethylphenyl)-1-(4-biphenylmethyl)-7-chloro-2-oxo-1,2,3,5-tetrahydro-4,1-benzoxazepine-3-acetamide•monohydrochloride] | 7.00 | 8.52 | 6.52 | 9.15 | 6.52 | 8.70 | 6.70 | 9.15
2 | NCc1cccc(C2OC(CC(=O)NCc3ccccc3F)C(=O)N(Cc3ccc(O)cc3)c3ccc(Cl)cc32)c1 (stereo not drawn) [Example 102, 3,5-Trans-N-(2-fluorobenzyl)-5-(3-aminomethylphenyl)-7-chloro-1-(4-hydroxybenzyl)-2-oxo-1,2,3,5-tetrahydro-4,1-benzoxazepine-3-acetamide•monohydrochloride] | 7.22 | 7.10 | 6.52 | 10.00 | 6.70 | 9.52 | 7.00 | 9.52
